Measured values from patent publication US20220009918A1, “Chemical Compounds” (GlaxoSmithKline Intellectual Property Development Limited, priority 2018, published 2022).

Target: T1, human H-PGDS (Homo sapiens, UniProt O60760)
T1 construct: Full length human H-PGDS cDNA (Invitrogen Ultimate ORF IOH13026) was amplified by PCR; 6-His (N); TEV protease cleavage site (N); made in house; host or cells: E. coli BL21 (DE3*) for H-PGDS; Sf9 insect cells (baculovirus) for COX-2
Assay: H-PGDS RapidFire high throughput mass spectrometry assay
Type: biochemical
Details: inhibition of conversion of PGH2 to PGD2 by H-PGDS; for IC50: mean pIC50, read-out: Potency Range (mean pIC50) (converted)
Experimental: H-PGDS RapidFire™ High Throughput Mass Spectrometry Assay
The H-PGDS RapidFire™ mass spectrometric assay monitors conversion of prostaglandin H2 (PGH2) to prostaglandin D2 (PGD2) by haematopoietic prostaglandin D synthase (H-PGDS). In the assay format described here, the substrate (PGH2) is formed in situ by the action of cyclooxygenase-2 on arachidonic acid. This first step is set up to be fast, and generates a burst of PGH2 at ˜10 μM. The PGH2 is then further converted to PGD2 by the H-PGDS enzyme. […] Plates are then read on the RapidFire™ high throughput solid phase extraction system (Agilent) which incorporates a solid phase extraction step coupled to a triple quadrupole mass spectrometer (AB SCIEX). Relative levels of PGD2 and PGF2α, which acts as a surrogate for substrate, are measured and a percent conversion calculated. Inhibitors are characterised as compounds which lower the conversion of PGH2 to PGD2.
Full length human H-PGDS cDNA (Invitrogen Ultimate ORF IOH13026) was amplified by PCR with the addition of a 5′ 6-His tag and TEV protease cleavage site. The PCR product was digested with NdeI and XhoI and ligated into pET22b+ (Merck Novagen®). Expression was carried out in E. coli strain BL21 (DE3*) using auto-induction Overnight Express™ Instant TB medium (Merck Novagen®) supplemented with 1% glycerol. The culture was first grown at 37° C. and the temperature was reduced to 25° C. when OD600 reached 2.0. Cells were harvested by centrifugation after a further 18 hours. 10 g of E. coli cell pellet was suspended to a total volume of 80 mL in lysis buffer (20 mM Tris-Cl pH 7.5, 300 mM NaCl, 20 mM imidazole, 5 mM p-mercaptoethanol, 10% glycerol). 1 mg/mL protease inhibitors (Protease Inhibitor Cocktail Set III, Merck Calbiochem®) and 1 mg/mL lysozyme were added to the cell suspension. The suspension was then sonicated for 5 min (UltraSonic Processor VCX 750, Cole-Parmer Instrument Co.) with a micro probe (50% amplitude, 10 sec on/off) and then centrifuged at 100,000 g for 90 minutes (at 4° C.). The supernatant was loaded onto a Ni-NTA HiTrap column (5 mL, GE Healthcare, pre-equilibrated in lysis buffer). The column was washed with 10 column volumes of lysis buffer and eluted with lysis buffer containing 500 mM imidazole. The pooled protein peak fractions were concentrated using a 10 kDa centrifugal filter at 3500 g and 4° C. (Amicon Ultra-15 centrifugal filter unit with Ultracel-10 membrane from Millipore). Further purification of the concentrated protein was carried out using gel filtration chromatography on a HiLoad 26/600 Superdex 75 preparative grade column (GE Healthcare Life Sciences) using 50 mM Tris pH 7.5, 50 mM NaCl, 1 mM dithiothreitol, 1 mM MgCl2. Fractions containing the protein were pooled, concentrated as described above, and stored at −80° C.
The full length human COX-2 gene (accession number L15326) was amplified by PCR to generate an EcoRI—HindIII fragment containing an in-frame FLAG tag. This was subcloned into pFastBac 1 (Invitrogen). The COX-2 FLAG plasmid was recombined into the baculovirus genome according to the BAC-to-BAC protocol described by Invitrogen. Transfection into Spodoptera frugiperda (Sf9) insect cells was performed using Cellfectin (Invitrogen), according to the manufacturer's protocol. Super Sf9 cells were cultured in EX420 media (SAFC Biosciences) to a density of approximately 1.5×10^6 cells/mL within a wave bioreactor. Recombinant virus was added at a Multiplicity of Infection (MOI) of 5 and the culture was allowed to continue for 3 days. Cells were harvested using a continuous feed centrifuge run at 2500 g at a rate of approximately 2 L/min with cooling. The resultant cell slurry was re-centrifuged in pots (2500 g, 20 min, 4° C.) and the cell paste was stored at −80° C. […]

T1 sequence (O60760 whole entry): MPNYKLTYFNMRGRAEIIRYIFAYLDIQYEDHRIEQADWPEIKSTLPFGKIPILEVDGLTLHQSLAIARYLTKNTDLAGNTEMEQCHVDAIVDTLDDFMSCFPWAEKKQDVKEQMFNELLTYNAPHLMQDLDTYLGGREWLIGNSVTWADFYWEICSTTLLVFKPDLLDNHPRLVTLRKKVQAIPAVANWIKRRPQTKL

SMILES | IC50 | Potency Range (mean pIC50)
O=C(NC1CCNC1=O)c1cnc(-c2cccc(Cl)c2)s1 (racemic) [Example 2, Racemic 2-(3-Chlorophenyl)-N-(2-oxopyrrolidin-3-yl)thiazole-5-carboxamide] | 0.0102 to 0.1 µM | –
CC1(C)CC(NC(=O)c2cnc(-c3cc(F)cc(Cl)c3)s2)C(=O)N1 (racemic) [Example 14, Racemic 2-(3-Chloro-5-fluorophenyl)-N-(5,5-dimethyl-2-oxopyrrolidin-3-yl)thiazole-5-carboxamide] | 0.0102 to 0.1 µM | –
CC1(C)CC(NC(=O)c2cnc(-c3cc(F)cc(C(F)F)c3)s2)C(=O)N1 (racemic) [Example 18, Racemic 2-(3-(Difluoromethyl)-5-fluorophenyl)-N-(5,5-dimethyl-2-oxopyrrolidin-3-yl)thiazole-5-carboxamide] | 0.0102 to 0.1 µM | –
O=C(NC1CC2(CC2)NC1=O)c1cnc(-c2cc(F)cc(Cl)c2)s1 (racemic) [Example 20, Racemic 2-(3-Chloro-5-fluorophenyl)-N-(5-oxo-4-azaspiro[2.4]heptan-6-Yl)thiazole-5-carboxamide] | 0.0102 to 0.1 µM | –
CCC1(CC)CNC(=O)C1NC(=O)c1cnc(-c2cc(F)cc(Cl)c2)s1 (racemic) [Example 23, Racemic 2-(3-Chloro-5-fluorophenyl)-N-(4,4-diethyl-2-oxopyrrolidin-3-yl)thiazole-5-carboxamide] | 0.102 to 1 µM | –
O=C(NC1CC2(CCC2)NC1=O)c1cnc(-c2cc(F)cc(Cl)c2)s1 (racemic) [Example 27, Racemic 2-(3-Chloro-5-fluorophenyl)-N-(6-oxo-5-azaspiro[3.4]octan-7-v)thiazole-5-carboxamide] | 0.0102 to 0.1 µM | –
C[C@H]1[C@H](C)NC(=O)[C@@H]1NC(=O)c1cnc(-c2cc(F)cc(Cl)c2)s1 (racemic) [Example 34, Racemic 2-(3-Chloro-5-fluorophenyl)-N-((3R,4S,5S)-4,5-dimethyl-2-oxopyrrolidin-3-yl)thiazole-5-carboxamide; and 2-(3-Chloro-5-fluorophenyl)-N-((3S,4R,5R)-4,5-dimethyl-2-oxopyrrolidin-3-yl)thiazole-5-carboxamide] | 0.0102 to 0.1 µM | –
O=C(N[C@H]1C(=O)N[C@@H]2CCC[C@@H]21)c1cnc(-c2cc(F)cc(Cl)c2)s1 (racemic) [Example 49, Racemic 2-(3-Chloro-5-fluorophenyl)-N-((3R,3aS,6aR)-2-oxooctahydrocyclopenta[b]pyrrol-3-yl)thiazole-5-carboxamide; and 2-(3-Chloro-5-fluorophenyl)-N-((3S,3aR,6aS)-2-oxooctahydrocyclopenta[b]pyrrol-3-yl)thiazole-5-carboxamide] | 0.00102 to 0.01 µM | –
O=C(N[C@@H]1C(=O)N[C@H]2COC[C@H]21)c1cnc(-c2cc(F)cc(Cl)c2)s1 (racemic) [Example 52, Racemic 2-(3-Chloro-5-fluorophenyl)-N-((3S,3aR,6aR)-2-oxohexahydro-1H-furo[3,4-b]pyrrol-3-yl)thiazole-5-carboxamide; and 2-(3-Chloro-5-fluorophenyl)-N-((3R,3aS,6aS)-2-oxohexahydro-1H-furo[3,4-b]pyrrol-3-yl)thiazole-5-carboxamide] | 0.0102 to 0.1 µM | –
O=C(NC1CC2(COC2)NC1=O)c1cnc(-c2cc(F)cc(Cl)c2)s1 (racemic) [Example 55, Racemic 2-(3-Chloro-5-fluorophenyl)-N-(6-oxo-2-oxa-5-azaspiro[3.4]octan-7-yl)thiazole-5-carboxamide] | 0.00102 to 0.01 µM | –
O=C(N[C@H]1C(=O)N[C@H]2CCC[C@H]21)c1cnc(-c2cc(F)cc(Cl)c2)s1 (racemic) [Example 58, Racemic 2-(3-Chloro-5-fluorophenyl)-N-((3R,3aR,6aS)-2-oxooctahydrocyclopenta[b]pyrrol-3-yl)thiazole-5-carboxamide; and 2-(3-Chloro-5-fluorophenyl)-N-((3S,3aS,6aR)-2-oxooctahydrocyclopenta[b]pyrrol-3-yl)thiazole-5-carboxamide] | 0.0102 to 0.1 µM | –
CN1CCC(NC(=O)c2cnc(-c3cc(F)cc(Cl)c3)s2)C1=O (racemic) [Example 63, Racemic 2-(3-Chloro-5-fluorophenyl)-N-(1-methyl-2-oxopyrrolidin-3-yl)thiazole-5-carboxamide] | 0.0102 to 0.1 µM | –
CN(C(=O)c1cnc(-c2cc(F)cc(Cl)c2)s1)C1CCNC1=O (racemic) [Example 65, Racemic 2-(3-Chloro-5-fluorophenyl)-N-methyl-N-(2-oxopyrrolidin-3-yl)thiazole-5-carboxamide] | 1.02 to 10 µM | –
COc1ccc(CN2CCC(C)(NC(=O)c3cnc(-c4cc(F)cc(Cl)c4)s3)C2=O)cc1 (racemic) [Example 70, Racemic 2-(3-Chloro-5-fluorophenyl)-N-(1-(4-methoxybenzyl)-3-methyl-2-oxopyrrolidin-3-yl)thiazole-5-carboxamide] | 0.102 to 1 µM | –
CC1(NC(=O)c2cnc(-c3cc(F)cc(Cl)c3)s2)CCNC1=O (racemic) [Example 71, Racemic 2-(3-Chloro-5-fluorophenyl)-N-(3-methyl-2-oxopyrrolidin-3-yl)thiazole-5-carboxamide] | 0.102 to 1 µM | –
C[C@H]1CNC(=O)[C@H]1NC(=O)c1cnc(-c2cc(F)cc(Cl)c2)s1 (racemic) [Example 74, Racemic cis-2-(3-Chloro-5-fluorophenyl)-N-(4-methyl-2-oxopyrrolidin-3-yl)thiazole-5-carboxamide] | – | *** (*** = pIC50 7.00-7.99)
CC1(C)CC(NC(=O)c2cnc(-c3cc(F)cc(Cl)c3)[se]2)C(=O)N1 (racemic) [Example 82, Racemic 2-(3-Chloro-5-fluorophenyl)-N-(5,5-dimethyl-2-oxopyrrolidin-3-yl)-1,3-selenazole-5-carboxamide] | 0.0102 to 0.1 µM | –
CC1(C)CC(NC(=O)c2cnc(-c3cc(F)cc(Cl)c3)s2)C(=S)N1 (racemic) [Example 83, Racemic 2-(3-Chloro-5-fluorophenyl)-N-(5,5-dimethyl-2-thioxopyrrolidin-3-yl)thiazole-5-carboxamide] | 0.00102 to 0.01 µM | –
CC1(C)C[C@@H](NC(=O)c2cnc(-c3cc(F)cc(Cl)c3)s2)C(=O)N1 (single isomer, unassigned) [Example 15] | 0.102 to 1 µM | –
O=C(N[C@H]1CCNC1=O)c1cnc(-c2cccc3ccoc23)s1 [Example 1, (S)-2-(Benzofuran-7-yl)-N-(2-oxopyrrolidin-3-yl)thiazole-5-carboxamide] | 0.0102 to 0.1 µM | –
O=C(N[C@H]1CCNC1=O)c1cnc(-c2cccc(Cl)c2)s1 [Example 3, (S)-2-(3-Chlorophenyl)-N-(2-oxopyrrolidin-3-yl)thiazole-5-carboxamide] | 0.0102 to 0.1 µM | –
O=C(N[C@H]1CCNC1=O)c1cnc(-c2cccc(C(F)(F)F)c2)s1 [Example 4, (S)-N-(2-Oxopyrrolidin-3-v)-2-(3-(trifluoromethyl)phenyl)thiazole-5-carboxamide] | 0.0102 to 0.1 µM | –
Cc1cccc(-c2ncc(C(=O)N[C@H]3CCNC3=O)s2)c1 [Example 5, (S)-N-(2-Oxopyrrolidin-3-yl)-2-(m-tolyl)thiazole-5-carboxamide] | 0.00102 to 0.01 µM | –
O=C(N[C@H]1CCNC1=O)c1cnc(-c2cc(F)cc(Cl)c2)s1 [Example 6, (S)-2-(3-Chloro-5-fluorophenyl)-N-(2-oxopyrrolidin-3-yl)thiazole-5-carboxamide] | 0.00102 to 0.01 µM | –
O=C(N[C@H]1CCNC1=O)c1cnc(-c2cc(Cl)ccc2F)s1 [Example 7, (S)-2-(5-Chloro-2-fluorophenyl)-N-(2-oxopyrrolidin-3-yl)thiazole-5-carboxamide] | 0.0102 to 0.1 µM | –
